Experiment [1] has as its system wildtype Wnt signaling cascade. The experiment is described as follows: HEK293 TOP Assay (Super TopFlash luciferase reporter, Wnt-3a stimulated). In kind it is cell-based. Conditions: Homo sapiens, HEK293, 16 h. In outline: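 HEK293 cells stably carrying Super TopFlash (TOP) or FOP reporter, stimulated with recombinant human Wnt-3a (2500–5 ng/ml, two-fold steps). Both lines incubated in parallel with compound from 50 μM to 15 nM (3.16-fold) in CAFTY buffer pH 7.4 with 2 mM Ca2+ and 0.01% BSA; selectivity judged TOP vs FOP.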
(Reporter assays use an easily measured gene product as a stand-in for the process of interest.)

A further experiment concerns the target T1, TNKS2 (Homo sapiens, UniProt Q9H2K2).
T1 sequence (Q9H2K2 1-1166): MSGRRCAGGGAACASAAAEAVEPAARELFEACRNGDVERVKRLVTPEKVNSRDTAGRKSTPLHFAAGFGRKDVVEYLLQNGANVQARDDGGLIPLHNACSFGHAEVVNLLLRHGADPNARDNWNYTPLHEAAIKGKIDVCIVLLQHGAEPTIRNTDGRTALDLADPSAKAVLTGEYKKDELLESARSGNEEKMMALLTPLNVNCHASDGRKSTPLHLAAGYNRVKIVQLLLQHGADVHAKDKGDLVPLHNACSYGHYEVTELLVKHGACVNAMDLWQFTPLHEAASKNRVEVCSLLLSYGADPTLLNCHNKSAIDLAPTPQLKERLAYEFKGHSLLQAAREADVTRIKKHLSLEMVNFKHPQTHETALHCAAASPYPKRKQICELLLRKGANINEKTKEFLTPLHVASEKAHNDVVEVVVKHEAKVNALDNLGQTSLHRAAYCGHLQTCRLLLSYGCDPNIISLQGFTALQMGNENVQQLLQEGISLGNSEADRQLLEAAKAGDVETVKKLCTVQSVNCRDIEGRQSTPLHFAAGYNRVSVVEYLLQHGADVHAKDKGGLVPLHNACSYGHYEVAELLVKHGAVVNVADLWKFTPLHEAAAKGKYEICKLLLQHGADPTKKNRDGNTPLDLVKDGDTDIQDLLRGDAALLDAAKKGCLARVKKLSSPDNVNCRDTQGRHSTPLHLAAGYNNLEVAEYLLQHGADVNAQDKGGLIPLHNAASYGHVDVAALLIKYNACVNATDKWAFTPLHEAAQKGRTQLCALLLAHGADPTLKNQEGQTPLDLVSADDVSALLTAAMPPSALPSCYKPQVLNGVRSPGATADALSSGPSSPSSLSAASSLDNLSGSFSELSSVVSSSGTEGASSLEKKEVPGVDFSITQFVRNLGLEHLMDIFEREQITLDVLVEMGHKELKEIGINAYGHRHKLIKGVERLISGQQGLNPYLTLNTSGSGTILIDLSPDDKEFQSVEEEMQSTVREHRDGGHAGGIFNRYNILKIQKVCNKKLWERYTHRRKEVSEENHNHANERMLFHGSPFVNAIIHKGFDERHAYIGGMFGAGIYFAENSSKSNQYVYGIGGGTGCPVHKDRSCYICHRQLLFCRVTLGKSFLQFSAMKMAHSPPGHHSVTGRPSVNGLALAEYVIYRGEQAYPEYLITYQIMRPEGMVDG
Put plainly: Modified TNKS2 Assay 2 (auto-parsylation, [3H]-NAD+ SPA). The class given is biochemical. The following applies: 6 nM TNKS2, 96 well. The procedure:
The potency of selected compounds according to the invention was assessed applying an modified in vitro inhibition assay. Here, the TNKS2 catalyzed NAD^+-dependent ribosylation of the enzyme itself (auto-parsylation) was detected using [^3H]-NAD^+ as substrate and applying the scintillation proximity assay (SPA) method to detect tritium-labeled, parsylated TNKS2. The intensity of the readout signal is proportional to the incorporated [^3H]-NAD^+. Inhibition of TNKS2 leads to a decreased incorporation of [^3H]-NAD^+ and consequently to a lower readout signal intensity. The concentration of a test compound which inhibits the enzyme activity by 50% (corresponds to half of the normed readout signal intensity) is reported as IC50.
The assay was conducted in a 96 well MTP format with the identical TNKS2 enzyme sample and NAD^+ sample as in the histone ribosylation assay with the following modifications: TNKS2 enzyme sample was diluted with a modified assay buffer (50 mM MES pH 7.0, 1 mM DTT, 0.01% Triton X-100) to a final concentration of 6 nM TNKS2 and 10×NAD^+ solution was diluted with the modified assay buffer (s. above) to a final 0.445×NAD^+ solution doped with 100 Bq/ul [^3H]-NAD^+ [Catalog #NET443H050UC, Perkin Elmer, Waltham, Mass., USA]. Substrate solution (10 ul) was incubated with different test compound concentrations (2.5 ul in 10% DMSO in modified assay buffer) or control (2.5 ul 10% DMSO in modified assay buffer only) and enzyme (10 ul) over night at room temperature. Incorporated tritium was measured after addition of 50 ul SPA beads (1 mg/ml) [Catalog #RPNQ0095 20 mg/ml, Perkin Elmer, Waltham, Mass., USA; diluted 1:10 with Dulbecco's phosphate buffered saline, PBS Catalog #D8537, Sigma-Aldrich, Steinheim, Germany] and detection of the photon emission with a beta count plate reader [Wallac MicroBeta®, Perkin Elmer, Waltham, Mass., USA].

Setting [2] is: HEK293 TOP reporter cell line, Wnt-3a at EC50, 16 hours incubation, compound dilution series 50 μM to 15 nM.
The mark [3] stands for this setting: HEK293 TOP reporter cells, Wnt3a at EC50, 16 hours, luciferase.

pIC50: −log10 of the molar value.

For the molecule `O=C(Nc1ccc(NC(=O)c2ocnc2C(=O)NCCN2CCC(F)(F)CC2)cc1)c1ccc(F)cc1Cl` [Example 218, N^5-{4-[(2-chloro-4-fluorobenzoyl)amino]phenyl}-N^4-[2-(4,4-difluoropiperidin-1-yl)ethyl]-1,3-oxazole-4,5-dicarboxamide], the pIC50 – broadly, the negative decadic logarithm of the IC50, by convention in mol/L – in experiment [1] (setting [2]) is 5.79; at TNKS2 it was 6.96.
With `CNC(=O)c1nc[nH]c1C(=O)Nc1ccc(NC(=O)c2ccncc2Cl)cc1` [Example 6, N^5-{4-[(3-chloroisonicotinoyl)amino]phenyl}-N^4-methyl-1H-imidazole-4,5-dicarboxamide], the pIC50 is 6.64 in experiment [1] (setting [2]), 6.64 in experiment [1] (setting [3]) and 6.74 against TNKS2.
For `CC(NC(=O)c1ncoc1C(=O)Nc1ccc(NC(=O)c2ccc(F)cc2Cl)cc1)c1ccccc1` (stereo not drawn) [Example 8, N^5-{4-[(2-chloro-4-fluorobenzoyl)amino]phenyl}-N^4-(1-phenylethyl)-1,3-oxazole-4,5-dicarboxamide], the pIC50 in experiment [1] (setting [2]) and in experiment [1] (setting [3]) was 5.34 in each case.
Turning to `CC1CCN(CCNC(=O)c2[nH]cnc2C(=O)Nc2ccc(NC(=O)c3ccc(F)cc3)cc2)CC1` [Example 164, N^4-{4-[(4-fluorobenzoyl)amino]phenyl}-N^5-[2-(4-methylpiperidin-1-yl)ethyl]-1H-imidazole-4,5-dicarboxamide], the pIC50 was 6.04 in experiment [1] (setting [2]) and 7.22 on TNKS2.
The like results for `CC(C)(CN1CCOCC1)NC(=O)c1[nH]cnc1C(=O)Nc1ccc(NC(=O)c2ccc(F)cc2Cl)cc1` [Example 207, N^4-{4-[(2-chloro-4-fluorobenzoyl)amino]phenyl}-N^5-[2-methyl-1-(morpholin-4-yl)propan-2-yl]-1H-imidazole-4,5-dicarboxamide] were, in that order, 6.15 and 6.68.
On to `CCC(C)NC(=O)c1ncoc1C(=O)Nc1ccc(NC(=O)c2ccc(F)cc2Cl)cc1` (stereo not drawn) [Example 7, N^4-sec-butyl-N^5-{4-[(2-chloro-4-fluorobenzoyl)amino]phenyl}-1,3-oxazole-4,5-dicarboxamide], for which the pIC50 in experiment [1] (setting [2]) and in experiment [1] (setting [3]) was 5.25 each time.
As to `CN(C)C(=O)c1nc[nH]c1C(=O)Nc1ccc(NC(=O)c2ccc(F)cc2Cl)cc1` [Example 24, N^5-{4-[(2-chloro-4-fluorobenzoyl)amino]phenyl}-N^4,N^4-dimethyl-1H-imidazole-4,5-dicarboxamide], the pIC50 is 5.67 in experiment [1] (setting [2]), 5.69 in experiment [1] (setting [3]) and 5.47 against TNKS2.
As for `CNC(=O)c1nc[nH]c1C(=O)Nc1ccc(NC(=O)c2cc(F)c(F)cc2Cl)cc1` [Example 242, N^5-{4-[(2-chloro-4,5-difluorobenzoyl)amino]phenyl}-N^4-methyl-1H-imidazole-4,5-dicarboxamide], the pIC50 was 7.10 in experiment [1] (setting [2]) and 7.52 against TNKS2.
The like results for `CN1CCN(CCNC(=O)c2[nH]cnc2C(=O)Nc2ccc(NC(=O)c3ccccc3Cl)cc2)CC1` [Example 160, N^4-{4-[(2-chlorobenzoyl)amino]phenyl}-N^5-[2-(4-methylpiperazin-1-yl)ethyl]-1H-imidazole-4,5-dicarboxamide] were, in that order, 6.24 and 6.96.
In the same order, the values of `CNC(=O)c1nc[nH]c1C(=O)Nc1ccc(NC(=O)c2cc(OCCN3CCN(C)CC3)ccc2Cl)cc1` [Example 124, N^5-[4-({2-chloro-5-[2-(4-methylpiperazin-1-yl)ethoxy]benzoyl}amino)phenyl]-N^4-methyl-1H-imidazole-4,5-dicarboxamide] are 4.30 and below 5.00.
As to `CNC(=O)c1nc[nH]c1C(=O)Nc1ccc(NC(=O)c2ccc(OC(F)(F)F)cc2F)cc1` [Example 253, N^5-(4-{[2-fluoro-4-(trifluoromethoxy)benzoyl]amino}phenyl)-N^4-methyl-1H-imidazole-4,5-dicarboxamide], the pIC50 in experiment [1] (setting [2]) is 4.92; at TNKS2, below 5.00.
`O=C(Nc1ccc(NC(=O)c2nc[nH]c2C(=O)NCCCCN2CCCCC2)cc1)c1ccccc1Cl` [Example 189, N^4-{4-[(2-chlorobenzoyl)amino]phenyl}-N^5-[4-(piperidin-1-yl)butyl]-1H-imidazole-4,5-dicarboxamide]: the pIC50 in experiment [1] (setting [2]) was 6.05; at TNKS2 it was 6.59.
Take `CNC(=O)c1[nH]cnc1C(=O)Nc1ccc(NC(=O)c2cc(Cl)sc2Cl)cc1` [Example 213, N^4-(4-{[(2,5-dichloro-3-thienyl)carbonyl]amino}phenyl)-N^5-methyl-1H-imidazole-4,5-dicarboxamide]: the negative-log IC50 (pIC50) in experiment [1] (setting [2]) is 6.34.
As for `CC(C)NC(=O)c1ncoc1C(=O)Nc1ccc(NC(=O)c2ccc(F)cc2Cl)cc1` [Example 15, N^5-{4-[(2-chloro-4-fluorobenzoyl)amino]phenyl}-N^4-isopropyl-1,3-oxazole-4,5-dicarboxamide], the pIC50 in experiment [1] (setting [2]) and in experiment [1] (setting [3]) was 5.90 throughout.
With `COC(=O)c1ncoc1C(=O)Nc1ccc(NC(=O)c2ccc(F)cc2Cl)cc1` [Example 14, Methyl 5-({4-[(2-chloro-4-fluorobenzoyl)amino]phenyl}carbamoyl)-1,3-oxazole-4-carboxylate], the figures for the pIC50 in experiment [1] (setting [2]) and in experiment [1] (setting [3]) were 5.03 and 4.94, respectively.
The like results for `CNC(=O)c1nc[nH]c1C(=O)Nc1ccc(NC(=O)c2c(-c3ccccc3)nn(C)c2Cl)cc1` [Example 17, N^5-(4-{[(5-chloro-1-methyl-3-phenyl-1H-pyrazol-4-yl)carbonyl]amino}phenyl)-N^4-methyl-1H-imidazole-4,5-dicarboxamide] were, in that order, 5.45 and 5.45.
In the same order, the values of `CNC(=O)c1nc[nH]c1C(=O)Nc1ccc(NC(=O)c2c(C)cc(F)cc2C)cc1` [Example 23, N^5-{4-[(4-fluoro-2,6-dimethylbenzoyl)amino]phenyl}-N^4-methyl-1H-imidazole-4,5-dicarboxamide] are 6.18 and 6.18.
Take `CNC(=O)c1nc[nH]c1C(=O)Nc1ccc(NC(=O)c2ccc(N3CCCC3)cc2F)cc1` [Example 3, N^5-(4-{[2-fluoro-4-(pyrrolidin-1-yl)benzoyl]amino}phenyl)-N^4-methyl-1H-imidazole-4,5-dicarboxamide]: the pIC50 in experiment [1] (setting [2]) and in experiment [1] (setting [3]) was 5.01 each time.
On to `O=C(Nc1ccc(NC(=O)c2[nH]cnc2C(=O)NCc2ccccc2)cc1)c1ccc(F)cc1Cl` [Example 18, N^4-benzyl-N^5-{4-[(2-chloro-4-fluorobenzoyl)amino]phenyl}-1H-imidazole-4,5-dicarboxamide], for which the results for the pIC50 in experiment [1] (setting [2]) and in experiment [1] (setting [3]) were 6.39 and 6.47, respectively.

The values above are taken from patent publication US9884063B2, “Amido-substituted azole compounds” (Bayer Pharma Aktiengesellschaft, priority 2014, dated 2018).
